Experiments:
[1] = molecular target: T1, σ2 receptors expressed in F98 cells (Rattus norvegicus, UniProt Q5U3Y7); assay: Homologous competition with membrane homogenates of F98 cells; format: binding
T1 construct: σ2 receptors expressed in F98 cells; endogenous in cells; host or cells: F98 rat glioma cells
T1 sequence (Q5U3Y7 1-176): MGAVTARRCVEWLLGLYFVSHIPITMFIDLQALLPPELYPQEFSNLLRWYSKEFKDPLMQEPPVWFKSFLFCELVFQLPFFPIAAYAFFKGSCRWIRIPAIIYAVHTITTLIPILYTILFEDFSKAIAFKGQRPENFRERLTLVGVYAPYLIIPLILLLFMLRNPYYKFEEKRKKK
Text: Initially, we investigated the binding of [^18F]RM273 on rat brain slices by autoradiography to compare the distribution pattern with that of established σ2 receptor ligands and to examine the target specificity. The highest binding was found in the cortical areas and hippocampal structures. […] Accordingly, we proceeded to investigate, in a rat glioblastoma model, the potential suitability of [^18F]RM273 for molecular characterization of cancer. At first, homologous competition studies using membrane homogenates of the rat glioma cell line F98 were performed to determine the σ2 receptor binding parameters of [^18F]RM273 cells (Figure 3).
Binding affinity experiments to assess the Ki values of test compounds towards rat σ2 receptors, human σ1 receptors, and rat VAChT were performed according to protocols previously published by our group. The same protocol was used to determine the KD and Bmax values of RM273 towards σ2 receptors expressed in F98 cells by homologous competition analyzing the displacement of [^18F]RM273 by RM273.
Figure 3 Determination of KD and Bmax values of [^18F]RM273. Homologous competition studies were performed by incubation of [^18F]RM273 at 5–7 different molar activities either with membrane homogenates of F98 cells (open squares) or cryosections of rat brain (n = 2) obtained about three weeks after stereotactic implantation of F98 cells (tumor region = filled circles; contralateral region = open circles). […] For the F98 cell homogenate, the maximum number of binding sites Bmax was calculated by division of the specific binding by the fractional occupancy fp (Bmax = 36,000 fmol/mg protein).

[2] = In vitro stability of the radioligand in saline, PBS and TRIS-HCl buffer; format: physicochemical; details: 37 °C
Protocol: (§1) The in vitro stability of [^18F]RM273 was investigated in saline, phosphate-buffered saline (PBS), and TRIS-HCl buffer (50 mM, pH 7.4) at 37 °C for 2 h, and the radioligand remained intact (90%, 94%, and 100%, respectively; saline for 1 h: 95%). The logD7.4 of [^18F]RM273 was experimentally determined by the shake-flask method as 1.78 ± 0.22 (n = 3), which is well within the range of 1–3.5 recommended for brain targeting compounds [43].
In vitro stability of [^18F]RM273 was determined in saline, phosphate-buffered saline (PBS), and TRIS (50 mM, pH 7.4) by incubation of approx. 5 MBq in 500 µL of each medium at 37 °C. Samples were taken after 30, 60, and 120 min and analyzed by analytical radio-HPLC with a gradient system as applied in Section 5.2.2.

[3] = Quantification of radiometabolites in mouse tissues at 30 min p.i.; format: in vivo, CD-1 mice
Protocol: From quantitative analysis of the radio-chromatograms, which indicated the presence of solely [^18F]RM273 (>99%; n = 3; Supplemental Information Table S1 and Figure S2), we concluded that upon the presence of an intact BBB, the PET image derived from [^18F]RM273 in the brain was not affected by confounding radiometabolites.
About 30 MBq [^18F]RM273 dissolved in about 150 µL isotonic saline was administered intravenously as a bolus in the tail vein of in awake female CD-1 mice weighing about 33 g (n = 3). At 30 min p.i., the animals were anesthetized and blood was withdrawn by retrobulbar bleeding using glass capillaries. Immediately afterwards, the animals were euthanized by cervical dislocation, and released urine sampled. Blood plasma was obtained from the whole blood sample by centrifugation (2 min, 8000 rpm, room temperature). In addition, the brain, the liver, and the pancreas were isolated and homogenized in 1 mL demineralized water on ice (1000 rpm, 10 strokes; glass vessel, PTFE plunger; Potter S, B. Braun Biotech International, Goettingen, Germany). Bone marrow (n = 2) was isolated by flushing the femur with about 200 µL isotonic saline.
The samples were further processed for subsequent radio-chromatographic analyses. Two consecutive extractions were performed as duplicate for plasma and brain determinations. Plasma and brain samples were added to an ice-cold MeOH/H2O mixture (9:1, v/v). The samples were vortexed for 3 min, incubated on ice for 5 min, and centrifuged at 12,000 rpm for 5 min. Supernatants were collected, the precipitates were re-dissolved in 100 µL of extraction solvent, and the extraction procedure was repeated. The activities of supernatants and precipitates were measured in a γ-counter (1480 WIZARD, Fa. Perkin Elmer), and the extraction efficiencies were calculated as ratio of the radioactivity in the supernatant to the radioactivity in the original sample (supernatant + precipitate). The supernatants from both extractions were combined, concentrated at 70 °C under argon stream up to a remaining volume of 100 µL, and subsequently analyzed by analytical radio-HPLC with a gradient system as applied in Section 5.2.2.
3. Quantification of radiometabolites in mouse
Table 1. Radiometabolite analysis of [18F]RM273 in different tissues 30 min p.i.
Experiment 1 Experiment 2
Extraction Intact Extraction Intact Extraction Intact efficiency tracer efficiency tracer (%) efficiency tracer
Figure 2. Representative radio-HPLC chromatograms of the metabolism studies of [18F]RM273 in different tissues obtained at 30 min p.i.. (A) Brain, (B) Plasma, (C) Pancreas, (D)
Liver and (E) Bone marrow. Conditions:
Reprosil-Pur C18-AQ (250 x 4.6 mm; 5 μm); gradient (eluent A 10% MeCN/20 mM
NH4OAcaq.; eluent B 90 % MeCN/20 mM
(1 picture or pasted object on this page, not shown here)

[4] = Lipophilicity (logD7.4), shake-flask method; format: physicochemical; details: n-octanol/PBS pH 7.4, shake-flask, n = 3
Protocol: as §1
LogD7.4 of [^18F]RM273 was experimentally determined in n-octanol/PBS; 0.01 M, pH 7.4) at room temperature by the shake-flask method. The measurement was performed twice in triplicate.

Bmax equivalent ([1]; F98 cell homogenate, converted from fmol/mg protein): about 3600 fmol/mg tissue | Bmax ([1]; F98 cell membrane homogenate): 36,000 fmol/mg protein | Kd ([1]; F98 cell membrane homogenate, homologous competition): 12 nM | radioligand remained intact ([2]; TRIS-HCl buffer (50 mM, pH 7.4), 2 h): 100% | radioligand remained intact ([2]; phosphate-buffered saline (PBS), 2 h): 94% | radioligand remained intact ([2]; saline, 1 h): 95% | radioligand remained intact ([2]; saline, 2 h): 90% | Intact tracer ([3]; Bone Marrow, Mouse 2): 97% | Intact tracer ([3]; Bone Marrow, Mouse 3): 97% | Intact tracer ([3]; Brain, Mouse 1): 100% | Intact tracer ([3]; Brain, Mouse 2): 100% | Intact tracer ([3]; Brain, Mouse 3): 100% | Intact tracer ([3]; Liver, Mouse 1): 34% | Intact tracer ([3]; Liver, Mouse 2): 36% | Intact tracer ([3]; Liver, Mouse 3): 28% | Intact tracer ([3]; Pancreas, Mouse 1): 100% | Intact tracer ([3]; Pancreas, Mouse 2): 96% | Intact tracer ([3]; Pancreas, Mouse 3): 96% | Intact tracer ([3]; Plasma, Mouse 1): 23% | Intact tracer ([3]; Plasma, Mouse 2): 37% | Intact tracer ([3]; Plasma, Mouse 3): 28% | intact radioligand in brain ([3]; mice, n = 3): > 99% | logD [4]: 1.78 ± 0.22
Compound: COc1cc2c(cc1OC)CN(CCCCn1ccc3ccc([18F])nc31)CC2 [[^18F]RM273]
